Measured values: PubChem BioAssay (NCI)
Values joined by “and” are separate entries in the source; they are usually repeats but may differ in a detail not shown here. Identical values can stand only once.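 Growth conditions: 96-well plates. Treatment: test compound, 48 hours, 5 concentrations. Analysis: linear interpolation between bracketing concentrations; unreached endpoints set to highest concentration. GI50 is the concentration that inhibits growth by half. TGI: total growth inhibition.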

What was measured:
Test in all cases: NCI tumour cell line growth inhibition, 48 h
UACC-62 melanoma = tested on: UACC-62 melanoma
A549 NSCLC = tested on: A549 NSCLC
OVCAR-5 ovarian = tested on: OVCAR-5 ovarian
OVCAR-8 ovarian = tested on: OVCAR-8 ovarian
SK-MEL-28 melanoma = tested on: SK-MEL-28 melanoma
M19-MEL melanoma = tested on: M19-MEL melanoma
LXFL 529 NSCLC = tested on: LXFL 529 NSCLC
DU-145 prostate = tested on: DU-145 prostate
HS 578T breast = tested on: HS 578T breast

Row | SMILES | TGI (UACC-62 melanoma) | TGI (A549 NSCLC) | TGI (OVCAR-5 ovarian) | TGI (OVCAR-8 ovarian) | TGI (SK-MEL-28 melanoma) | TGI (M19-MEL melanoma) | GI50 (UACC-62 melanoma) | GI50 (OVCAR-5 ovarian) | GI50 (OVCAR-8 ovarian) | GI50 (LXFL 529 NSCLC) | TGI (LXFL 529 NSCLC) | GI50 (SK-MEL-28 melanoma) | GI50 (M19-MEL melanoma) | GI50 (A549 NSCLC) | GI50 (DU-145 prostate) | TGI (DU-145 prostate) | GI50 (HS 578T breast) | TGI (HS 578T breast)
1 | CC1=C(C(=O)CC(=O)C(=O)Nc2ccccc2C)Sc2ccccc2N1 | > 100 µM | > 100 µM | > 100 µM | > 100 µM | > 100 µM | > 100 µM |  |  |  |  |  |  |  |  |  |  |  | 
2 | CC1(C)CC(O)CC(C)(C)N1.CC1(C)CC(O)CC(C)(C)N1.CC1(C)CC(O)CC(C)(C)N1.CC1(C)CC(O)CC(C)(C)N1.Cl.[Ti] | > 100 µM |  | > 100 µM | > 100 µM | > 100 µM | > 100 µM | > 100 µM | > 100 µM | > 100 µM | > 100 µM | > 100 µM | > 100 µM | > 100 µM |  |  |  |  | 
3 | Oc1c(I)cc(Cl)c2cccnc12 | 4.56 µM and 5.09 µM | > 100 µM | 73.5 µM and 49.6 µM | > 100 µM and 99.3 µM | > 100 µM |  | 1.81 µM and 2.06 µM | 6.43 µM and 13.2 µM | 3.96 µM and 27.2 µM |  |  | 3.75 µM and 6.69 µM |  | 3.96 µM and 8.89 µM | 5.9 µM and 21.2 µM | > 100 µM and 50.6 µM | 7.78 µM and 8.12 µM | > 100 µM and 57.7 µM
4 | OC1CSCCSCCCSCCSC1 | > 100 µM | > 100 µM | > 100 µM | > 100 µM | > 100 µM |  |  |  |  |  |  |  |  |  |  | > 100 µM |  | > 100 µM
5 | O=S(=O)(NCCCNc1nccc(-c2c(-c3cccc(F)c3)nc3occn23)n1)c1cccc2ccccc12 | > 100 µM | > 100 µM | > 100 µM | > 100 µM | > 100 µM |  | 4.28 µM | 9.6 µM | 7.02 µM |  |  | 23.6 µM |  | 6.67 µM | 6.97 µM | > 100 µM | 8.36 µM | > 100 µM
6 | COC(=O)c1ccc2c(c1)C(=O)c1c-2n(CCCCl)c(=O)c2cc(OC)c(OC)cc12 | > 100 µM | > 100 µM | > 100 µM | > 100 µM | > 100 µM |  | > 100 µM | > 100 µM | > 100 µM |  |  | > 100 µM |  | > 100 µM | > 100 µM | > 100 µM | > 100 µM | > 100 µM
7 | N#Cc1cccc(C2C3=C(COC3=O)N(CCO)c3cc4c(cc32)CCC4)c1 (stereo not given) | > 50 µM | > 50 µM | > 50 µM | > 50 µM | > 50 µM |  | 0.028 µM | 0.237 µM | 0.237 µM |  |  | 0.437 µM |  | 0.23 µM | 0.191 µM | 7.29 µM | 0.141 µM | > 13.5 µM
8 | Cc1n(Cc2ccc3ccccc3n2)cc[n+]1Cc1ccc2ccccc2c1 | 3.61 µM | 13.4 µM | 13 µM | 11.2 µM | 7 µM |  | 0.933 µM | 1.67 µM | 1.29 µM |  |  | 0.975 µM |  | 1.34 µM | 2.08 µM | 14.8 µM | 1.18 µM | 9.72 µM
9 | CN1CC[C@]23c4c5ccc(O)c4OC2c2[nH]ncc2C[C@H]3[C@H]1C5 (stereo not given in full) | > 100 µM | > 100 µM | > 100 µM | > 100 µM | > 100 µM |  |  |  |  |  |  |  |  |  |  | > 100 µM |  | > 100 µM
10 | C=CC(C)(O)CCC1C(=C)C(O)CC2C(C)(C)CCCC12C (stereo not given) | 29.8 µM | 54.9 µM | 41.7 µM | 71.4 µM | 36.8 µM |  |  |  |  |  |  |  |  |  |  | 37.2 µM |  | 50.3 µM
11 | Cc1ccc(NC(=O)c2ccc(NC3=C(Cl)C(=O)N(Cc4ccccc4)C3=O)cc2)cc1Cl | 59.9 µM | 25.6 µM | 10.2 µM | 21.5 µM | > 100 µM |  | 15.5 µM | 0.774 µM | 9.96 µM |  |  | 24.2 µM |  | 12.9 µM | 0.624 µM | 7.73 µM | 10.7 µM | 34.9 µM
12 | Cc1ccc(NC2=CC(=O)C(=O)c3ccccc32)c(C)c1 | 3.72 µM | 4.34 µM | 21.6 µM | 17 µM | 13.5 µM |  | 1.78 µM | 6.66 µM | 3.32 µM |  |  | 3.54 µM |  | 1.97 µM | 1.58 µM | 2.93 µM | 2.35 µM | 7.99 µM
13 | CC(C)C/C(=N\NC(=O)c1ccncc1)c1cc(Cl)ccc1O | 8.08 µM | > 42.6 µM | 38.9 µM | > 49.2 µM | > 69.4 µM |  | 0.451 µM | 0.825 µM | 0.255 µM |  |  | 2.61 µM |  | 0.498 µM | 0.379 µM | 28.9 µM | 14.8 µM | > 87.1 µM
14 | Nc1nc(-c2ccccc2)cc(-c2cc(Cl)ccc2O)n1 | > 100 µM | > 100 µM | > 100 µM | > 100 µM | > 100 µM |  |  |  |  |  | > 100 µM |  |  |  |  |  |  | 
15 | O=S(=O)(Cc1ccccc1)SCc1ccccc1 | 55.8 µM | > 100 µM | > 100 µM | 28.8 µM | 97.2 µM | 53.9 µM |  |  |  |  |  |  |  |  |  |  |  | 
16 | O=C(/C=C/c1cccc(Oc2ccc(Cl)cc2)c1)c1ccccc1 | 77 µM | 298 µM | 83.6 µM | 66.9 µM | 107 µM |  | 26.8 µM | 26.3 µM | 26.9 µM |  |  | 29.7 µM |  | 138 µM | 69.7 µM | 207 µM | 109 µM | 628 µM
17 | CC(=O)OC1COC(Oc2c(C)c3c4c(c2O)[C@@H](C)CC[C@@H]4[C@@H](C)C[C@H]3C=C(C)C)C(O)C1O (stereo not given in full) | 39.4 µM | 43.7 µM | 37.3 µM | 50.3 µM | 57.3 µM |  | 18.8 µM | 18.1 µM | 20.6 µM |  |  | 23.8 µM |  | 16.8 µM | 13.7 µM | 30.7 µM | > 100 µM | > 100 µM
18 | C=CC[PH+](c1ccccc1)c1ccccc1.C=CC[PH+](c1ccccc1)c1ccccc1.[Pt+2].[S-]c1ncccn1.[S-]c1ncccn1 | 24.8 µM | > 100 µM | 34.6 µM | > 100 µM | 44.5 µM |  | 8.06 µM | 15.1 µM | 4.44 µM |  |  | 16.4 µM |  | 26.3 µM | 23.9 µM | > 100 µM | 23 µM | > 100 µM
